Experimental data: patent publication US20230212202A1, “TREATMENT OF MGMT DEFICIENT CANCER WITH 2-FLUOROETHYL-SUBSTITUTED NITROSOUREAS AND OTHER COMPOUNDS” (YALE UNIVERSITY, priority 2021, published 2023)

Tests used:
[1] = test system: LN229 MGMT+/-, MMR+/- cells; test: Short-term cell viability assay, four isogenic LN229 glioblastoma cell lines; format: cell-based, human
LN229 MGMT-/MMR- cells = test: Short-term cell viability assay; format: cell-based, human; conditions: Homo sapiens, LN-229
LN229 MGMT-/MMR+ cells = test: Genomic DNA denaturing gel electrophoresis; format: cell-based, human
Procedure: Genomic DNA Denaturing Gel Electrophoresis. Assay was adapted from N. Bossuet-Greif et al., The Colibactin Genotoxin Generates DNA Interstrand Cross-Links in Infected Cells. mBio 9, (2018). Cells were trypsinized, washed with 1X PBS, and stored at -80° C. prior to processing. Genomic DNA was extracted with the DNeasy Blood & Tissue Kit (Qiagen) per kit protocol. A 0.7% agarose gel was prepared in 100 mM NaCl-2mM EDTA (pH 8) and soaked in 40 mM NaOH-1 mM EDTA running buffer for 2 h. Genomic DNA (400 ng/well) was then loaded in 1X BlueJuice loading buffer (Invitrogen) and subjected to electrophoresis at 2 V/cm for 30 min, followed by 3 V/cm for 2 h. The gel was neutralized in 150 mM NaCl-100 mM Tris (pH 7.4) for 30 min, twice, and then stained with 1X SYBR Gold in 150 mM NaCl-100 mM Tris (pH 7.4) for 90 min. Imaging was performed on a ChemiDoc XRS+ Molecular Imager (Bio-Rad).

[2] = test system: CHK1 and CHK2 phosphorylation in LN229 MGMT+/-, MMR+/- cells; test: Western blotting of CHK1 and CHK2 phosphorylation; format: cell-based, human; conditions: 20 µM, 24 or 48 h
Procedure: Western Blotting. For phospho-protein analysis experiments, cells were lysed in 1X RIPA buffer (Cell Signaling Technology, #9806) supplemented with 1X Protease Inhibitor Cocktail (Roche) and 1X PhosSTOP Phosphatase Inhibitor Cocktail (Sigma). For all other western blot analyses, cells were lysed in lysis buffer (50 mM HEPES, 250 mM NaCl, 5 mM EDTA, 1% NP-40) supplemented with 1X Protease Inhibitor Cocktail (Roche). The de-ubiquitination inhibitor N-ethylmaleimide (NEM, 4 mM) was added in FANCD2 ubiquitination analysis experiments. Proteins were separated using NuPAGE 4-12% Bis-Tris or 3-8% Tris-Acetate Gels (Invitrogen) and transferred to Immobilon-P PVDF membrane (Millipore) for western blotting. Membranes were blocked with 5% milk in TBS-T for 1 h prior to primary antibody addition overnight at 4° C. […] Where shown, bands were quantified using ImageJ software.

[3] = test system: LN229 MGMT+/-, MMR+/- cells; test: Clonogenic survival assay; format: cell-based, human
Procedure: Clonogenic Cell Survival Assay. Cells were trypsinized, washed, counted, and diluted in a medium containing various concentrations of drug. They were then immediately seeded in six-well plates in triplicate at three-fold dilutions, ranging from 9000 to 37 cells per well. Depending on colony size, these plates were kept in the incubator for 10 to 14 days. After incubation, colonies were washed in phosphate-buffered saline (PBS), stained with crystal violet, counted, and quantified.

[4] = test system: LN229 MGMT-/MMR+ and MGMT-/MSH6- flank tumors; test: Flank tumor third study: large tumors; format: in vivo, mouse; conditions: 25 mg/kg PO MWF × 3 weeks, ~350-400 mm^3 tumors
Procedure: The third study involved MGMT-/MMR+ and MGMT-/MSH6- (shMSH6) LN229 cells. Mice tumors were allowed to grow to a larger average starting volume of ~350 mm^3 before they were randomized and administered either KL-50 (4a; 25 mg/kg MWF × 3 weeks) or vehicle (10% cyclodextrin) by oral gavage. Caliper measurements were obtained during the dosing period and at least two weeks following treatment. Mice were euthanized if body weight loss exceeded 20% or if tumor volume increased to greater than 3000 mm^3.

[5] = test system: LN229 MGMT-/MMR+ and MGMT-/MMR- flank tumors; test: Flank tumor second study: regimens, schedules and routes; format: in vivo, mouse; conditions: 5, 15, 25 mg/kg; MWF × 3 weeks, M-F × 1 week; PO, IP
Excerpt: In a second study, mice were randomized and administered either KL-50 (4a) or vehicle (10% cyclodextrin) by oral gavage or intraperitoneal injection on either M-F × 1 or MWF × 3 cycles at 5, 15, or 25 mgs/kg. Caliper measurements were obtained during the dosing period and at least two weeks following treatment. Mice were euthanized if body weight loss exceeded 20% or if tumor volume increased to greater than 2000 mm^3.

**Q.** How did the “activity in the four LN229 cell lines” value [1] turn out when NC(=O)c1ncn2c(=O)n(CCF)nnc12 [KL-50] was run?
**A.** mirrored that of 4b

**Q.** And the “rescue of toxicity by ROS scavenger NAC” value [1]?
**A.** did not result in rescue

**Q.** And the “selectivity for MGMT-deficient cells” value ([1]; LN229)?
**A.** ~ 25 fold

**Q.** What about the IC50 (LN229 MGMT-/MMR- cells) of the same compound?
**A.** ~20 µM

**Q.** And the “crosslinked genomic DNA” value (LN229 MGMT-/MMR+ cells)?
**A.** presence of crosslinked DNA

**Q.** And the “CHK1 and CHK2 phosphorylation” value [2]?
**A.** induced CHK1 and CHK2 phosphorylation in MGMT- cells regardless of MMR status

**Q.** And the “clonogenic survival, MGMT+ cells” value ([3]; LN229 MGMT+ cells)?
**A.** minimal toxicity to MGMT+ cells at doses up to at least 200 µM

**Q.** What about the “clonogenic survival, MGMT- cells” value ([3]; LN229 MGMT- cells, MMR+/-) of the same compound?
**A.** robust antitumor activity in MGMT- cells, independent of MMR status

**Q.** What about the “growth of large tumors” value [4] of the same compound?
**A.** potently suppressed the growth

**Q.** And the “efficacy and toxicity across regimens” value [5]?
**A.** effective and non-toxic
